This note sets out measurements from patent US9809625B2, “Immunomodulators” (BRISTOL-MYERS SQUIBB COMPANY, priority 2015, dated 2017).

Bridge positions count the residues as written; N and C are the ends. Square brackets hold non-standard residues; d marks the D form. Peptide text beside a SMILES is read from it. * marks the point of attachment. ξ: configuration not given here. Trp(1-CH2COOH) = N[C@@H](Cc1cn(CC(=O)O)c2ccccc12)C(=O)O; Hyp = O=C(O)[C@@H]1C[C@@H](O)CN1; Piperazinyl(4-Me) = CN1CCN(*)CC1; ξW = NC(Cc1c[nH]c2ccccc12)C(=O)O; NMeNle = CCCC[C@H](NC)C(=O)O; X5 = Clc1ccc(C2CCN(*)CC2)cc1; Morpholide = C1CN(*)CCO1; NMeA = CN[C@@H](C)C(=O)O; Dab = NCC[C@H](N)C(=O)O; Dap = NC[C@H](N)C(=O)O; X1 = CN(C)C1CCN(*)CC1; NHBn = c1ccc(CN*)cc1; NHCH2CH2OMe = COCCN*; X8 = c1ccc(SCCN*)cc1; βAla = NCCC(=O)O; NHcPr = C1CC1N*; Sar = CNCC(=O)O

T1 sequence (Q9NZQ7 with tags, fused parts or gaps): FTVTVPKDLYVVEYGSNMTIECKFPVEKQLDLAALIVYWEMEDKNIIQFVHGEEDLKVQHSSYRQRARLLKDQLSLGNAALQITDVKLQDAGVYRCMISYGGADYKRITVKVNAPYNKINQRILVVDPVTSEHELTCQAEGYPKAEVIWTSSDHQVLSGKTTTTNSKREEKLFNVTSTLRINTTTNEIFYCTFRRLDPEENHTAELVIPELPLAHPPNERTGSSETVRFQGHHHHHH

This test addresses T1, PD-1-Ig binding to PD-L1-TVMV-His (PD-L1-His) (Homo sapiens, UniProt Q9NZQ7).
T1 construct: hPDL1(19-239)-TVMV-His; TVMV protease cleavage site (C); made in house; host or cells: HEK293T
As to the kind of experiment: PD-1/PD-L1 Homogenous Time-Resolved Fluorescence (HTRF) binding assay. Conditions: PD-1-Ig (20 nM)/PD-L1-His (10 nM), range classes. The text has this:
Methods for Testing the Ability of Macrocyclic Peptides to Compete for the Binding of PD-1 to PD-L1 Using Homogenous Time-Resolved Fluorescence (HTRF) Binding Assays
The ability of the macrocyclic peptides of the present disclosure to bind to PD-L1 was investigated using a PD-1/PD-L1 Homogenous Time-Resolved Fluorescence (HTRF) binding assay.
Homogenous Time-Resolved Fluorescence (HTRF) Assays of Binding of Soluble PD-1 to Soluble PD-L1. Soluble PD-1 and soluble PD-L1 refers to proteins with carboxyl-end truncations that remove the transmembrane-spanning regions and are fused to heterologous sequences, specifically the Fc portion of the human immunoglobuling G sequence (Ig) or the hexahistidine epitope tag (His). All binding studies were performed in an HTRF assay buffer consisting of dPBS supplemented with 0.1% (w/v) bovine serum albumin and 0.05% (v/v) Tween-20. For the PD-1-Ig/PD-L1-His binding assay, inhibitors were pre-incubated with PD-L1-His (10 nM final) for 15 m in 4 μl of assay buffer, followed by addition of PD-1-Ig (20 nM final) in 1 μl of assay buffer and further incubation for 15 m. PD-L1 fusion proteins from either human, cynomologous macaques, mouse, or other species were used. HTRF detection was achieved using europium crypate-labeled anti-Ig monoclonal antibody (1 nM final) and allophycocyanin (APC) labeled anti-His monoclonal antibody (20 nM final). Antibodies were diluted in HTRF detection buffer and 5 μl was dispensed on top of binding reaction. The reaction was allowed to equilibrate for 30 minutes and signal (665 nm/620 nm ratio) was obtained using an EnVision fluorometer. Additional binding assays were established between PD-1-Ig/PD-L2-His (20 and 5 nM, respectively), CD80-His/PD-L1-Ig (100 and 10 nM, respectively) and CD80-His/CTLA4-Ig (10 and 5 nM, respectively). Binding/competition studies between biotinylated Compound No. 71 and human PD-L1-His were performed as follows. Macrocyclic peptide inhibitors were pre-incubated with PD-L1-His (10 nM final) for 60 minutes in 4 μl of assay buffer followed by addition of biotinylated Compound No. 71 (0.5 nM final) in 1 μl of assay buffer. Binding was allowed to equilibrate for 30 minutes followed by addition of europium crypated labeled Streptavidin (2.5 pM final) and APC-labeled anti-His (20 nM final) in 5 μl of HTRF buffer. The reaction was allowed to equilibrate for 30 m and signal (665 nm/620 nm ratio) was obtained using an EnVision fluorometer.
Recombinant Proteins. Carboxyl-truncated human PD-1 (amino acids 25-167) with a C-terminal human Ig epitope tag [hPD-1 (25-167)-3S-IG] and human PD-L1 (amino acids 18-239) with a C-terminal His epitope tag [hPD-L1(19-239)-tobacco vein mottling virus protease cleavage site (TVMV)-His] were expressed in HEK293T cells and purified sequentially by recombinant Protein A affinity chromatography and size exclusion chromatography. Human PD-L2-His (Sino Biologicals), CD80-His (Sino Biologicals), CTLA4-Ig (RnD Systems) were all obtained through commercial sources.
For `CCCC[C@H]1C(=O)N(C)[C@@H](CCCC)C(=O)N[C@@H](CC(C)C)C(=O)N[C@H](C(=O)NCC(=O)N2CCC(c3ccc(Cl)cc3)CC2)CSCC(=O)N[C@@H](Cc2ccc(O)cc2)C(=O)N(C)[C@@H](C)C(=O)N[C@@H](CC(N)=O)C(=O)N2CCC[C@H]2C(=O)N[C@@H](CN)C(=O)N[C@@H](CC(C)C)C(=O)N2C[C@H](O)C[C@H]2C(=O)N[C@@H](Cc2c[nH]c3ccccc23)C(=O)NCC(=O)NC(Cc2c[nH]c3ccccc23)C(=O)N1C` (stereo partly shown) [Example 13115] ({CH2CO}-Y[NMeA]NP[Dap]L[Hyp]WG[ξW][NMeNle][NMeNle]LCG-X5; thioether N-14), the half-inhibitory concentration (IC50) lay in the range of 0.01 to 0.06 µM.

Regarding `CCCC[C@H]1C(=O)N(C)[C@@H](CCCC)C(=O)N[C@@H](CC(C)C)C(=O)N[C@H](C(=O)NCC(=O)NCCC(N)=O)CSCC(=O)N[C@@H](Cc2ccc(O)cc2)C(=O)N(C)[C@@H](C)C(=O)N[C@@H](CC(N)=O)C(=O)N2CCC[C@H]2C(=O)N[C@@H](CN)C(=O)N[C@@H](CC(C)C)C(=O)N2C[C@H](O)C[C@H]2C(=O)N[C@@H](Cc2c[nH]c3ccccc23)C(=O)NCC(=O)NC(Cc2c[nH]c3ccccc23)C(=O)N1C` (stereo partly shown) [Example 13110] ({CH2CO}-Y[NMeA]NP[Dap]L[Hyp]WG[ξW][NMeNle][NMeNle]LCG[βAla]-NH2; thioether N-14), the IC50 lay within 0.004 to 0.0099 µM.

With `CCCC[C@H]1C(=O)N(C)[C@@H](CCCC)C(=O)N[C@@H](CC(C)C)C(=O)N[C@H](C(=O)N(C)CC(N)=O)CSCC(=O)N[C@@H](Cc2ccc(O)cc2)C(=O)N(C)[C@@H](C)C(=O)N[C@@H](CC(N)=O)C(=O)N2CCC[C@H]2C(=O)N[C@@H](CN)C(=O)N[C@@H](CC(C)C)C(=O)N2C[C@H](O)C[C@H]2C(=O)N[C@@H](Cc2c[nH]c3ccccc23)C(=O)NCC(=O)N[C@@H](Cc2c[nH]c3ccccc23)C(=O)N1C` [Example 13119] ({CH2CO}-Y[NMeA]NP[Dap]L[Hyp]WGW[NMeNle][NMeNle]LC[Sar]-NH2; thioether N-14), the IC50 was in the range of 0.01 to 0.06 µM.

Turning to `CCCC[C@H]1C(=O)N(C)[C@@H](CCCC)C(=O)N[C@@H](CC(C)C)C(=O)N[C@H](C(=O)NCC(=O)N2CCN(C)CC2)CSCC(=O)N[C@@H](Cc2ccc(O)cc2)C(=O)N(C)[C@@H](C)C(=O)N[C@@H](CC(N)=O)C(=O)N2CCC[C@H]2C(=O)N[C@@H](CN)C(=O)N[C@@H](CC(C)C)C(=O)N2C[C@H](O)C[C@H]2C(=O)N[C@@H](Cc2c[nH]c3ccccc23)C(=O)NCC(=O)N[C@@H](Cc2c[nH]c3ccccc23)C(=O)N1C` [Example 13089] ({CH2CO}-Y[NMeA]NP[Dap]L[Hyp]WGW[NMeNle][NMeNle]LCG-{Piperazinyl(4-Me)}; thioether N-14), the IC50 was 0.01 to 0.06 µM.

The compound `CCCC[C@H]1C(=O)N(C)[C@@H](CCCC)C(=O)N[C@@H](CC(C)C)C(=O)N[C@H](C(=O)NCC(=O)NCCSc2ccccc2)CSCC(=O)N[C@@H](Cc2ccc(O)cc2)C(=O)N(C)[C@@H](C)C(=O)N[C@@H](CC(N)=O)C(=O)N2CCC[C@H]2C(=O)N[C@@H](CN)C(=O)N[C@@H](CC(C)C)C(=O)N2C[C@H](O)C[C@H]2C(=O)N[C@@H](Cc2c[nH]c3ccccc23)C(=O)NCC(=O)NC(Cc2c[nH]c3ccccc23)C(=O)N1C` (stereo partly shown) [Example 13101] ({CH2CO}-Y[NMeA]NP[Dap]L[Hyp]WG[ξW][NMeNle][NMeNle]LCG-X8; thioether N-14) had an IC50 of 0.01 to 0.06 µM.

On to `CCCC[C@H]1C(=O)N(C)[C@@H](CCCC)C(=O)N[C@@H](CC(C)C)C(=O)N[C@H](C(=O)NCC(=O)NCCOC)CSCC(=O)N[C@@H](Cc2ccc(O)cc2)C(=O)N(C)[C@@H](C)C(=O)N[C@@H](CC(N)=O)C(=O)N2CCC[C@H]2C(=O)N[C@@H](CN)C(=O)N[C@@H](CC(C)C)C(=O)N2C[C@H](O)C[C@H]2C(=O)N[C@@H](Cc2c[nH]c3ccccc23)C(=O)NCC(=O)N[C@@H](Cc2c[nH]c3ccccc23)C(=O)N1C` [Example 13082] ({CH2CO}-Y[NMeA]NP[Dap]L[Hyp]WGW[NMeNle][NMeNle]LCG-NHCH2CH2OMe; thioether N-14), for which the half-maximal inhibitory concentration (IC50) was in the range of 0.01 to 0.06 µM.

For the compound `CCCC[C@H]1C(=O)N(C)[C@@H](CCCC)C(=O)N[C@@H](CC(C)C)C(=O)N[C@H](C(=O)NCC(=O)NC2CC2)CSCC(=O)N[C@@H](Cc2ccc(O)cc2)C(=O)N(C)[C@@H](C)C(=O)N[C@@H](CC(N)=O)C(=O)N2CCC[C@H]2C(=O)N[C@@H](CN)C(=O)N[C@@H](CC(C)C)C(=O)N2C[C@H](O)C[C@H]2C(=O)N[C@@H](Cc2c[nH]c3ccccc23)C(=O)NCC(=O)NC(Cc2c[nH]c3ccccc23)C(=O)N1C` (stereo partly shown) [Example 13091] ({CH2CO}-Y[NMeA]NP[Dap]L[Hyp]WG[ξW][NMeNle][NMeNle]LCG-NHcPr; thioether N-14), the IC50 is 0.004 to 0.0099 µM.

For `CCCC[C@H]1C(=O)N(C)[C@@H](CCCC)C(=O)N[C@@H](CC(C)C)C(=O)N[C@H](C(=O)NCC(=O)N2CCC(N(C)C)CC2)CSCC(=O)N[C@@H](Cc2ccc(O)cc2)C(=O)N(C)[C@@H](C)C(=O)N[C@@H](CC(N)=O)C(=O)N2CCC[C@H]2C(=O)N[C@@H](CN)C(=O)N[C@@H](CC(C)C)C(=O)N2C[C@H](O)C[C@H]2C(=O)N[C@@H](Cc2c[nH]c3ccccc23)C(=O)NCC(=O)NC(Cc2c[nH]c3ccccc23)C(=O)N1C` (stereo partly shown) [Example 13103] ({CH2CO}-Y[NMeA]NP[Dap]L[Hyp]WG[ξW][NMeNle][NMeNle]LCG-X1; thioether N-14), the IC50 fell in the range of 0.01 to 0.06 µM.

Consider `CCCC[C@H]1C(=O)N(C)[C@@H](CCCC)C(=O)N[C@@H](CC(C)C)C(=O)N[C@H](C(=O)NCC(=O)NCc2ccccc2)CSCC(=O)N[C@@H](Cc2ccc(O)cc2)C(=O)N(C)[C@@H](C)C(=O)N[C@@H](CC(N)=O)C(=O)N2CCC[C@H]2C(=O)N[C@@H](CN)C(=O)N[C@@H](CC(C)C)C(=O)N2C[C@H](O)C[C@H]2C(=O)N[C@@H](Cc2c[nH]c3ccccc23)C(=O)N[C@@H](CCN)C(=O)N[C@@H](Cc2cn(CC(=O)O)c3ccccc23)C(=O)N1C` [Example 13080] ({CH2CO}-Y[NMeA]NP[Dap]L[Hyp]W[Dab][Trp(1-CH2COOH)][NMeNle][NMeNle]LCG-NHBn; thioether N-14), for which the IC50 is 0.004 to 0.0099 µM.

`CCCC[C@H]1C(=O)N(C)[C@@H](CCCC)C(=O)N[C@@H](CC(C)C)C(=O)N[C@H](C(=O)NCC(=O)N2CCOCC2)CSCC(=O)N[C@@H](Cc2ccc(O)cc2)C(=O)N(C)[C@@H](C)C(=O)N[C@@H](CC(N)=O)C(=O)N2CCC[C@H]2C(=O)N[C@@H](CN)C(=O)N[C@@H](CC(C)C)C(=O)N2C[C@H](O)C[C@H]2C(=O)N[C@@H](Cc2c[nH]c3ccccc23)C(=O)NCC(=O)N[C@@H](Cc2c[nH]c3ccccc23)C(=O)N1C` [Example 13087] ({CH2CO}-Y[NMeA]NP[Dap]L[Hyp]WGW[NMeNle][NMeNle]LCG-Morpholide; thioether N-14) displayed an IC50 of 0.01 to 0.06 µM.
